The values below come from US20260176267A1, “PREPARATION OF IMIDAZOPYRIDINE AND IMIDAZOPYRIDAZINE DERIVATIVES AS NOVEL DIACYLGLYCERIDE O-ACYLTRANSFERASE 2 INHIBITORS” (Merck Sharp & Dohme LLC, priority 2022, published 2026).

The test has as its target T1, human DGAT2 (hDGAT2) (Homo sapiens, UniProt Q96PD7).
T1 construct: made in house; host or cells: Sf-9 insect cells (baculovirus), membrane fraction
T1 sequence (Q96PD7 1-388): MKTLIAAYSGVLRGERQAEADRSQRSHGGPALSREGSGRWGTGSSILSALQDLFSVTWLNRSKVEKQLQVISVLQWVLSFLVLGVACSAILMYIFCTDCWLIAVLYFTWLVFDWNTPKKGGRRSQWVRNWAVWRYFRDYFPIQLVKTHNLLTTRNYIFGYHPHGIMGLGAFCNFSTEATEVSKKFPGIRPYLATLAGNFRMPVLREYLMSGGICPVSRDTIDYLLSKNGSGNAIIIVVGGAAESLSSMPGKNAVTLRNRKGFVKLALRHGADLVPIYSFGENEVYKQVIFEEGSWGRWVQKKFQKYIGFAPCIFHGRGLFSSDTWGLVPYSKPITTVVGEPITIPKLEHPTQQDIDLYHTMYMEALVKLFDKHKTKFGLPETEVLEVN
Kind of test: DGAT2 Enzymatic Activity Assay. Particulars: membrane prep of Sf-9 cells expressing hDGAT2; 13C18-triolein product by LC/MS/MS; 25 μM diolein, 5 μM 13C oleoyl-CoA, rt. The format is biochemical. The method, then:
Sf-9 insect cells were maintained in Grace's insect cell culture medium with 10% heated-inactivated fetal bovine serum, 1% Pluronic F-68 and 0.14 μg/ml Kanamycine sulfate at 27° C. in a shaker incubator. After infection with untagged baculovirus expressing human DGAT2 (hDGAT2) at multiplicity of infection (MOI) 3 for 48 hours, cells were harvested. Cell pellets were suspended in buffer containing 10 mM Tris-HCl pH 7.5, 1 mM EDTA, 250 mM sucrose and Complete Protease Inhibitor Cocktail (Sigma Aldrich), and sonicated on ice. Cell debris were removed by centrifugation at 2000×g for 15 minutes. Membrane fractions were isolated by ultracentrifugation (100,000×g), resuspended in the same buffer, and frozen (−80° C.) for later use. The protein concentration was determined with the Pierce™ BCA Protein Assay Kit (Thermo Fisher Scientific).
LC/MS/MS analyses were performed using Thermal Fisher's LX4-TSQ Vantage system. This system consists of an Agilent binary high-performance liquid chromatography (HPLC) pump and a TSQ Vantage triple quadrupole MS/MS instrument. For each sample, 2 μL samples from the top organic layer of in-plate liquid-liquid extraction were injected onto a Thermo Betabasic C4 column (2.1 mm×20 mm, 5 μm particle size). The samples were then eluted using the following conditions; mobile phase: Isopropanol:acetonitrile/10 mM ammonium formate=50/35/15 (v/v/v), flow rate: 0.8 mL/min, temperature: 25° C. Data was acquired in positive mode using a heated electrospray ionization (HESI) interface. The operational parameters for the TSQ Vantage MS/MS instrument were a spray voltage of 3000 V, capillary temperature of 280° C., vaporizer temperature 400° C., sheath gas 45 arbitrary unit. Aux gas 10 arbitrary units. […] The peak area was integrated by Xcalibur Quan software. The ratio between the ^13C18 triolein generated in the reaction and spiked in internal standard ^13C21-triolein was used to generate percentage inhibition and IC50 values. Compound percentage inhibition was calculated by the following formula: Inhibition %=1−[(compound response−low control)/(high control−low control)]×100%.
DGAT2 activity was determined by measuring the amount of enzymatic product ^13C18-triolein (^13C-1,2,3-Tri(cis-9-octadecenoyl)glycerol) using the membrane prep mentioned above. The assay was carried out in ABgene 384-well assay plates in a final volume of 25 μL at rt.
As for `COc1c(C(=O)NC2(C)CCS(=O)(=O)CC2)nc2ccc(Oc3ncccc3OCC(F)(F)F)cn12` [Example 134, 3-methoxy-N-(4-methyl-1,1-dioxo-thian-4-yl)-6-[[3-(2,2,2-trifluoroethoxy)-2-pyridyl]oxy]imidazo[1,2-a]pyridine-2-carboxamide], the IC50 stood at 6.2 nM.

Take `CC1(NC(=O)c2cn3cc(Oc4ncc(Cl)cc4OCC(F)(F)F)c(Cl)cc3n2)CCS(=O)(=O)CC1` [Example 13, 7-chloro-6-[5-chloro-3-(2,2,2-trifluoroethoxy)pyridine-2-yl]oxy-N-(4-methyl-1,1-dioxo-thian-4-yl)imidazo[1,2-a]pyridine-2-carboxamide]: the IC50 turned out to be 4.3 nM.

With `Cc1cn(C)nc1COc1ccc2nc(C(=O)NC3(C)CCS(=O)(=O)CC3)cn2n1` [Example 183, 6-((1,4-dimethyl-1H-pyrazol-3-yl)methoxy)-N-(4-methyl-1,1-dioxidotetrahydro-2H-thiopyran-4-yl)imidazo[1,2-b]pyridazine-2-carboxamide], the IC50 was 808 nM.

In turn, `CC1(NC(=O)c2cn3cc(Oc4ncc(Cl)cc4OCC(F)(F)F)ccc3n2)CS(=O)(=O)C1` [Example 1, 6-[[5-Chloro-3-(2,2,2-trifluoroethoxy)-2-pyridyl]oxy]-N-(3-methyl-1,1-dioxo-thietan-3-yl)imidazo[1,2-a]pyridine-2-carboxamide] had an IC50 of 5 nM.

`CCC1(NC(=O)c2nc3ccc(Oc4ncc(F)cc4OCC(F)(F)F)cn3c2C)CCS(=O)(=O)CC1` [Example 77, N-(4-ethyl-1,1-dioxo-thian-4-yl)-6-[[5-fluoro-3-(2,2,2-trifluoroethoxy)-2-pyridyl]oxy]-3-methyl-imidazo[1,2-a]pyridine-2-carboxamide] showed an IC50 of 33 nM.

In turn, `CC(C)c1c(C(=O)NC2(C)CCS(=O)(=O)CC2)nc2ccc(Oc3ncccc3OCC(F)(F)F)cn12` [Example 116, 3-isopropyl-N-(4-methyl-1,1-dioxo-thian-4-yl)-6-[[3-(2,2,2-trifluoroethoxy)-2-pyridyl]oxy]imidazo[1,2-a]pyridine-2-carboxamide] displayed an IC50 of 413 nM.

The compound `Cc1c(C(=O)NC2(C)CCS(=O)(=O)CC2)nc2ccc(Oc3ncc(C(C)(C)F)cc3OCC(F)(F)F)cn12` [Example 147, 6-[[5-(1-fluoro-1-methyl-ethyl)-3-(2,2,2-trifluoroethoxy)-2-pyridyl]oxy]-3-methyl-N-(4-methyl-1,1-dioxo-thian-4-yl)imidazo[1,2-a]pyridine-2-carboxamide] yielded an IC50 of 41 nM.

Turning to `Cc1c(C(=O)NC2(C)CCS(=O)(=O)C(C)(C)C2)nc2ccc(Oc3ncc(F)cc3OCC(F)F)cn12` (centres unmarked) [Example 64], the IC50 turned out to be 1.7 nM.

Compound `CC1(NC(=O)c2nc3ccc(Oc4ncccc4OCC(F)(F)F)cn3c2C(N)=O)CCS(=O)(=O)CC1` [Example 133, N2-(4-methyl-1,1-dioxo-thian-4-yl)-6-[[3-(2,2,2-trifluoroethoxy)-2-pyridyl]oxy-]imidazo[1,2-a]pyridine-2,3-dicarboxamide] returned a concentration for half-maximal inhibition (IC50) of 28 nM.

As for `Cc1c(C(=O)NCC2(C)CS(=O)(=O)C2)nc2ccc(Oc3ncc(F)cc3OCC(F)(F)F)cn12` [Example 110, 6-[[5-fluoro-3-(2,2,2-trifluoroethoxy)-2-pyridyl]oxy]-3-methyl-N-[(3-methyl-1,1-dioxo-thietan-3-yl)methyl]imidazo[1,2-a]pyridine-2-carboxamide], the IC50 was 957 nM.

The compound `Cc1cc(Oc2ncc(Cl)cc2OCC(F)F)nn2cc(C(=O)NC3(C)CS(=O)(=O)C3)nc12` [Example 172, 6-[[5-chloro-3-(2,2-difluoroethoxy)-2-pyridyl]oxy]-8-methyl-N-(3-methyl-1,1-dioxo-thietan-3-yl)imidazo[1,2-b]pyridazine-2-carboxamide] came in with an IC50 of 30 nM.

In the case of `CC1(NC(=O)c2cn3c(F)c(Oc4ncccc4OCC(F)(F)F)ccc3n2)CCS(=O)(=O)CC1` [Example 39, 5-fluoro-N-(4-methyl-1,1-dioxo-thian-4-yl)-6-[[3-(2,2,2-trifluoroethoxy)-2-pyridyl]oxy]imidazo[1,2-a]pyridine-2-carboxamide], the midpoint of inhibition, the IC50, lay at 74 nM.

Consider `Cc1cc2nc(C(=O)NC3(CC(F)(F)F)CCS(=O)(=O)CC3)cn2cc1Oc1ncc(Cl)cc1OCC(F)(F)F` [Example 12, 6-[[5-chloro-3-(2,2,2-trifluoroethoxy)-2-pyridyl]oxy]-N-[1,1-dioxo-4-(2,2,2-trifluoroethyl)thian-4-yl]-7-methyl-imidazo[1,2-a]pyridine-2-carboxamide], for which the IC50 was 5.6 nM.

Turning to `CCOc1cccnc1Oc1ccc2nc(C(=O)NC3CC(C)(C)OC(C)(C)C3)cn2c1` [Example 38, 6-[(3-ethoxy-2-pyridyl)oxy]-N-(2,2,6,6-tetramethyltetrahydropyran-4-yl)imidazo[1,2-a]pyridine-2-carboxamide], half-maximal inhibition (IC50) required 56 nM.

Compound `Cc1cc2nc(C(=O)NC3(C)CCS(=O)(=O)CC3)c(C)n2nc1Oc1ncc(F)cc1OCC(F)(F)F` [Example 170, 6-[[5-fluoro-3-(2,2,2-trifluoroethoxy)-2-pyridyl]oxy]-3,7-dimethyl-N-(4-methyl-1,1-dioxo-thian-4-yl)imidazo[1,2-b]pyridazine-2-carboxamide] gave an IC50 of 15 nM.

In turn, `Cc1cc2nc(C(=O)NC3(C)CCS(=O)(=O)CC3)cn2cc1Oc1ncc(F)cc1OCC(C)(F)F` [Example 19, 6-[[3-(2,2-difluoropropoxy)-5-fluoro-2-pyridyl]oxy]-7-methyl-N-(4-methyl-1,1-dioxo-thian-4-yl)imidazo[1,2-a]pyridine-2-carboxamide] came in with an IC50 of 7.7 nM.

`Cc1c(C(=O)NC2(C)CS(=O)(=O)C2)nc2ccc(Oc3ncc(Cl)cc3OCC(F)F)nn12` [Example 167, 6-((5-chloro-3-(2,2-difluoroethoxy)pyridin-2-yl)oxy)-3-methyl-N-(3-methyl-1,1-dioxidothietan-3-yl)imidazo[1,2-b]pyridazine-2-carboxamide] returned an IC50 of 11 nM.

`Cc1c(C(=O)NC2(C)CCS(=O)(=O)CC2)nc2ccc(OCc3ccccc3OC(F)F)cn12` [Example 127, 6-[[2-(difluoromethoxy)phenyl]methoxy]-3-methyl-N-(4-methyl-1,1-dioxo-thian-4-yl)imidazo[1,2-a]pyridine-2-carboxamide]: it took 6.5 nM to reach half-maximal inhibition (IC50).

For `CCOc1cccnc1Oc1ccc2nc(C(=O)N[C@H]3CC[C@](OC)(C(F)(F)F)CC3)cn2c1` [Example 26, 6-[(3-ethoxy-2-pyridyl)oxy]-N-[4-methoxy-4-(trifluoromethyl)cyclohexyl] imidazo[1,2-a]pyridine-2-carboxamide], the IC50 was found to be 10 nM.

As to `CC1(NC(=O)c2cn3nc(OCc4ncc(F)cc4OCC(F)(F)F)ccc3n2)CCS(=O)(=O)CC1` [Example 182, 6-[[5-Fluoro-3-(2,2,2-trifluoroethoxy)-2-pyridyl]methoxy]-N-(4-methyl-1,1-dioxo-thian-4-yl)imidazo[1,2-b]pyridazine-2-carboxamide], it took 11 nM to reach half-maximal inhibition (IC50).

`Cc1c(C(=O)NC2(C)CCS(=O)(=O)CC2)nc2cc(F)c(Oc3ncc(Cl)cc3OCC(F)(F)F)cn12` [Example 119, 6-[[5-chloro-3-(2,2,2-trifluoroethoxy)-2-pyridyl]oxy]-7-fluoro-3-methyl-N-(4-methyl-1,1-dioxo-thian-4-yl)imidazo[1,2-a]pyridine-2-carboxamide] returned an IC50 of 1 nM.

On to `Cc1c(C(=O)NC2CC(C(F)(F)F)C2)nc2ccc(Oc3ncc(F)cc3OCC(F)F)cn12` (centres unmarked) [Example 97, 6-[[3-(2,2-difluoroethoxy)-5-fluoro-2-pyridyl]oxy]-3-methyl-N-[3-(trifluoromethyl)cyclobutyl] imidazo[1,2-a]pyridine-2-carboxamide], for which the IC50 was 4 nM.

In turn, `CC(F)(F)COc1cc(F)cnc1Oc1ccc2nc(C(=O)NC3(C)CCS(=O)(=O)CC3)cn2n1` [Example 156, 6-[[3-(2,2-Difluoropropoxy)-5-fluoro-2-pyridyl]oxy]-N-(4-methyl-1,1-dioxo-thian-4-yl)imidazo[1,2-b]pyridazine-2-carboxamide] showed an IC50 of 988 nM.

The term IC50 denotes the concentration that gives 50% inhibition. Read a high IC50 as weaker potency in that assay.
